Experiments:
[1] = tested on: RKO (RKOp27) human colon adenocarcinoma cells; test: Alamar Blue cell viability assay, anti-proliferative/cytotoxic activity on proliferating (uninduced) RKO p27 cells; type: cell-based; settings: RKOp27, 72 h, proliferating cells without inducer Ponasterone A
Description: The anti-proliferative/cytotoxic activity of the compounds described herein, can be tested on subclones of RKO (RKOp27) human colon adenocarcinoma cells (Schmidt et al., Oncogene 19, 2423-2429; 2000) using the Alamar Blue cell viability assay (described in O'Brien et al. Eur J Biochem 267, 5421-5426, 2000). The compounds are dissolved as 20 mM solutions in dimethylsulfoxide (DMSO) and subsequently diluted in semi-logarithmic steps. DMSO dilutions are further diluted 1:100 into Dulbecco's modified Eagle's medium (DMEM) containing 10% fetal calf serum to a final concentration twice as much as the final concentration in the test. RKO subclones are seeded into 96 well flat bottom plates at a density of 4000 cells per well in a volume of 50 μl per well. 24 hours after seeding the 50 μl each of the compound dilutions in DMEM medium are added into each well of the 96 Well plate. Each compound dilution is tested as quadruplicates. Wells containing untreated control cells are filled with 50 μl DMEM medium containing 1% DMSO. The cells are then incubated with the substances for 72 hours at 37° C. in a humidified atmosphere containing 5% carbon dioxide. To determine the viability of the cells, 10 μl of an Alamar Blue solution (Biosource) are added and the fluorescence is measured at an extinction of 544 nm and an emission of 590 nm. For the calculation of the cell viability the emission value from untreated cells is set as 100% viability and the emission rates of treated cells are set in relation to the values of untreated cells. Viabilities are expressed as % values.
The corresponding IC50 values of the compounds for anti-proliferative/cytotoxic activity are determined from the concentration-effect curves.
Representative IC50 values for anti-proliferation/cytotoxicity determined in the mentioned assay follow from the following table A, in which the numbers of the compound correspond to the numbers of the examples.

[2] = tested on: RKOp27 colon adenocarcinoma cells arrested by expression of ectopic p27Kip1; test: Alamar Blue cell viability assay on RKO p27 cells arrested by Ponasterone A induced p27Kip1 (cell cycle specific mode of action); type: cell-based; settings: Homo sapiens, 72 hours, cells arrested by p27Kip1 induced with 10 μM Ponasterone A
Description: To determine the cell cycle specific mode of action, subclones of RKO colon adenocarcinoma cells (RKOp27 or RKOp21 as described by Schmidt et al. in Oncogene 19, 2423-2429; 2000) are seeded into 96 well flat bottom plates at a density of 16000 cells per well in a volume of 50 μl per well in DMEM growth medium with 10% FCS containing 10 μM Ponasterone A. 24 hours after seeding the 50 μl each of the compound dilutions in DMEM medium are added into each well of the 96 Well plate. Each compound dilution is tested as quadruplicates. Wells containing untreated control cells are filled with 50 μl DMEM medium containing 1% DMSO. The cells are then incubated with the substances for 72 hours at 37° C. in a humidified atmosphere containing 5% carbon dioxide. To determine the viability of the cells, 10 μl of an Alamar Blue solution (Biosource) are added and the fluorescence was measured at an extinction of 544 nm and an emission of 590 nm. For the calculation of the cell viability the emission value from untreated cells is set as 100% viability and the emission rates of treated cells are set in relation to the values of untreated cells. Viabilities are expressed as % values. Viability is compared of proliferating cells grown in the absence of the inducer Ponasterone A, versus viability of cells arrested by the expression of ectopic p27Kip1 induced by Ponasterone A.

## CCOC(=O)N1CCc2c(sc(NC(=O)CC(C)c3ccccc3OC)c2C#N)C1 (racemic) [Example 49, 3-Cyano-2-[(RS)-3-(2-methoxy-phenyl)-butanoylamino]-4,7-dihydro-5H-thieno[2,3-c]pyridine-6-carboxylic acid ethyl ester]
[1]
  IC50: ≤ 300 nM
[2]
  IC50: > 100000 nM

## CCOC(=O)N1CCc2c(sc(NC(=O)CCc3ccc(OC)cc3)c2C#N)C1 [Example 1, 3-Cyano-2-[3-(4-methoxy-phenyl)-propanoylamino]-4,7-dihydro-5H-thieno[2,3-c]pyridine-6-carboxylic acid ethyl ester]
[1]
  IC50: ≤ 300 nM
[2]
  IC50: > 100000 nM

## CCOC(=O)N1CCc2c(sc(NC(=O)CCc3cccc(OC)c3)c2C#N)C1 [Example 2, 3-Cyano-2-[3-(3-methoxy-phenyl)-propanoylamino]-4,7-dihydro-5H-thieno[2,3-c]pyridine-6-carboxylic acid ethyl ester]
[1]
  IC50: ≤ 300 nM
[2]
  IC50: > 100000 nM

## CCOC(=O)N1CCc2c(sc(NC(=O)CCc3ccccc3OC)c2C#N)C1 [Example 3, 3-Cyano-2-[3-(2-methoxy-phenyl)-propanoylamino]-4,7-dihydro-5H-thieno[2,3-c]pyridine-6-carboxylic acid ethyl ester]
[1]
  IC50: 300 to 2000 nM
[2]
  IC50: > 100000 nM

## CCOC(=O)N1CCc2c(sc(NC(=O)CCc3cccc([N+](=O)[O-])c3)c2C#N)C1 [Example 4, 3-Cyano-2-[3-(3-nitro-phenyl)-propanoylamino]-4,7-dihydro-5H-thieno[2,3-c]pyridine-6-carboxylic acid ethyl ester]
[1]
  IC50: ≤ 300 nM
[2]
  IC50: > 100000 nM

## CCOC(=O)N1CCc2c(sc(NC(=O)CCc3ccc(OCC)cc3)c2C#N)C1 [Example 5, 3-Cyano-2-[3-(4-ethoxy-phenyl)-propanoylamino]-4,7-dihydro-5H-thieno[2,3-c]pyridine-6-carboxylic acid ethyl ester]
[1]
  IC50: ≤ 300 nM
[2]
  IC50: > 100000 nM

## CCOC(=O)N1CCc2c(sc(NC(=O)CCc3cccc(OC)c3OC)c2C#N)C1 [Example 6, 3-Cyano-2-[3-(2,3-dimethoxy-phenyl)-propanoylamino]-4,7-dihydro-5H-thieno[2,3-c]pyridine-6-carboxylic acid ethyl ester]
[1]
  IC50: 300 to 2000 nM
[2]
  IC50: > 100000 nM

## CCOC(=O)N1CCc2c(sc(NC(=O)CCc3cc(OC)ccc3OC)c2C#N)C1 [Example 7, 3-Cyano-2-[3-(2,5-dimethoxy-phenyl)-propanoylamino]-4,7-dihydro-5H-thieno[2,3-c]pyridine-6-carboxylic acid ethyl ester]
[1]
  IC50: 300 to 2000 nM
[2]
  IC50: > 100000 nM

## CCOC(=O)N1CCc2c(sc(NC(=O)CCc3cccc(OCC)c3)c2C#N)C1 [Example 8, 3-Cyano-2-[3-(3-ethoxy-phenyl)-propanoylamino]-4,7-dihydro-5H-thieno[2,3-c]pyridine-6-carboxylic acid ethyl ester]
[1]
  IC50: 300 to 2000 nM
[2]
  IC50: > 100000 nM

## CCOc1ccccc1CCC(=O)Nc1sc2c(c1C#N)CCN(C(=O)OC(C)(C)C)C2 [Example 9, 3-Cyano-2-[3-(2-ethoxy-phenyl)-propanoylamino]-4,7-dihydro-5H-thieno[2,3-c]pyridine-6-carboxylic acid tert-butyl ester]
[1]
  IC50: ≤ 300 nM
[2]
  IC50: > 100000 nM

## COc1ccccc1CCC(=O)Nc1sc2c(c1C#N)CCN(C(=O)OC(C)(C)C)C2 [Example 10, 3-Cyano-2-[3-(2-methoxy-phenyl)-propanoylamino]-4,7-dihydro-5H-thieno[2,3-c]pyridine-6-carboxylic acid tert-butyl ester]
[1]
  IC50: ≤ 300 nM
[2]
  IC50: > 100000 nM

## COc1cccc(CCC(=O)Nc2sc3c(c2C#N)CCN(C(=O)OC(C)(C)C)C3)c1 [Example 11, 3-Cyano-2-[3-(3-methoxy-phenyl)-propanoylamino]-4,7-dihydro-5H-thieno[2,3-c]pyridine-6-carboxylic acid tert-butyl ester]
[1]
  IC50: ≤ 300 nM
[2]
  IC50: > 100000 nM

## CCOC(=O)N1CCc2c(sc(NC(=O)CCc3ccccc3OC(F)F)c2C#N)C1 [Example 12, 3-Cyano-2-{3-[2-(1,1-difluoro-methoxy)-phenyl]-propanoylamino}-4,7-dihydro-5H-thieno[2,3-c]pyridine-6-carboxylic acid ethyl ester]
[1]
  IC50: ≤ 300 nM
[2]
  IC50: > 100000 nM

## CCOC(=O)N1CCc2c(sc(NC(=O)CCc3cc(Br)cc(OC)c3OC)c2C#N)C1 [Example 14, 2-[3-(5-Bromo-2,3-dimethoxy-phenyl)-propanoylamino]-3-cyano-4,7-dihydro-5H-thieno[2,3-c]pyridine-6-carboxylic acid ethyl ester]
[1]
  IC50: ≤ 300 nM
[2]
  IC50: > 100000 nM

## CCOC(=O)N1CCc2c(sc(NC(=O)CCc3cc(Br)ccc3OC)c2C#N)C1 [Example 15, 2-[3-(5-Bromo-2-methoxy-phenyl)-propanoylamino]-3-cyano-4,7-dihydro-5H-thieno[2,3-c]pyridine-6-carboxylic acid ethyl ester]
[1]
  IC50: ≤ 300 nM
[2]
  IC50: > 100000 nM

## CCOC(=O)N1CCc2c(sc(NC(=O)CCc3cccc(OCC)c3OCC)c2C#N)C1 [Example 16, 3-Cyano-2-[3-(2,3-diethoxy-phenyl)-propanoylamino]-4,7-dihydro-5H-thieno[2,3-c]pyridine-6-carboxylic acid ethyl ester]
[1]
  IC50: 300 to 2000 nM
[2]
  IC50: > 100000 nM

## CCOC(=O)N1CCc2c(sc(NC(=O)CCc3cc(C)ccc3OC)c2C#N)C1 [Example 17, 3-Cyano-2-[3-(2-methoxy-5-methyl-phenyl)-propanoylamino]-4,7-dihydro-5H-thieno[2,3-c]pyridine-6-carboxylic acid ethyl ester]
[1]
  IC50: ≤ 300 nM
[2]
  IC50: > 100000 nM

## CCOC(=O)N1CCc2c(sc(NC(=O)CCc3c(OC)ccc4c3OC(F)(F)C(F)(F)O4)c2C#N)C1 [Example 18, 3-Cyano-2-[3-(2,2,3,3-tetrafluoro-6-methoxy-2,3-dihydro-benzo[1,4]dioxin-5-yl)-propanoylamino]-4,7-dihydro-5H-thieno[2,3-c]pyridine-6-carboxylic acid ethyl ester]
[1]
  IC50: 300 to 2000 nM
[2]
  IC50: > 100000 nM

## CCOC(=O)N1CCc2c(sc(NC(=O)CCc3ccccc3OCC)c2C#N)C1 [Example 19, 3-Cyano-2-[3-(2-ethoxyphenyl)-propanoylamino]-4,7-dihydro-5H-thieno[2,3-c]-pyridine-6-carboxylic acid ethyl ester]
[1]
  IC50: ≤ 300 nM
[2]
  IC50: > 100000 nM

## CCOc1ccccc1CCC(=O)Nc1sc2c(c1C#N)CCN(C(=O)OCC1COC(C)(C)O1)C2 (stereo not drawn) [Example 20, 3-Cyano-2-[3-(2-ethoxy-phenyl)-propanoylamino]-4,7-dihydro-5H-thieno[2,3-c]pyridine-6-carboxylic acid 2,2-dimethyl-[1,3]dioxolan-4-ylmethyl ester]
[1]
  IC50: ≤ 300 nM
[2]
  IC50: > 100000 nM

## CCOc1ccccc1CCC(=O)Nc1sc2c(c1C#N)CCN(C(=O)OCCOCc1ccccc1)C2 [Example 21, 3-Cyano-2-[3-(2-ethoxy-phenyl)-propanoylamino]-4,7-dihydro-5H-thieno[2,3-c]pyridine-6-carboxylic acid 2-benzyloxy-ethyl ester]
[1]
  IC50: 300 to 2000 nM
[2]
  IC50: > 100000 nM

## COc1ccccc1CCC(=O)Nc1sc2c(c1C#N)CCN(C(=O)OCCOCc1ccccc1)C2 [Example 24, 3-Cyano-2-[3-(2-methoxy-phenyl)-propanoylamino]-4,7-dihydro-5H-thieno[2,3-c]pyridine-6-carboxylic acid 2-benzyloxy-ethyl ester]
[1]
  IC50: 300 to 2000 nM
[2]
  IC50: > 100000 nM

## COc1ccccc1CCC(=O)Nc1sc2c(c1C#N)CCN(C(=O)OCCc1ccccn1)C2 [Example 25, 3-Cyano-2-[3-(2-methoxy-phenyl)-propanoylamino]-4,7-dihydro-5H-thieno[2,3-c]pyridine-6-carboxylic acid 2-pyridin-2-yl-ethyl ester]
[1]
  IC50: ≤ 300 nM
[2]
  IC50: > 100000 nM

## COc1ccccc1CCC(=O)Nc1sc2c(c1C#N)CCN(C(=O)OCc1ccccn1)C2 [Example 26, 3-Cyano-2-[3-(2-methoxy-phenyl)-propanoylamino]-4,7-dihydro-5H-thieno[2,3-c]pyridine-6-carboxylic acid pyridin-2-ylmethyl ester]
[1]
  IC50: ≤ 300 nM
[2]
  IC50: ≥ 40000 nM
